Results: US12491182B2, “Polymorphs of triazole antifungal compound PC945” (Pulmocide Limited, priority 2019, dated 2025)
Values after ≈ are worked out from the molar mass of the structure shown. Like-named read-outs stand apart in the source and are kept apart here. Marks after values point to notes of the source that are not given here.

How the values were obtained:
[1] = Cross-seeding experiments of Forms 1 and 2 at 5, 25 and 50 °C, XRPD; assay type: physicochemical; conditions: 96 hr
Source text: (§1) X-Ray powder diffraction patterns were collected on a PANalytical diffractometer using Cu Kα radiation (45 kV, 40 mA), θ-θ goniometer, focusing mirror, divergence slit (½″), soller slits at both incident and divergent beam (4 mm) and a PIXcel detector. The software used for data collection was X′Pert Data Collector, version 2.2f and the data was presented using X′Pert Data Viewer, version 1.2d. XRPD patterns were acquired under ambient conditions via a transmission foil sample stage (polyimide—Kapton, 12.7 μm thickness film) under ambient conditions using a PANalytical X′Pert PRO. The data collection range was 2.994-35°2θ with a continuous scan speed of 0.202 s^−1.
A mixture of Forms 1 and 2 (50% w/w) was prepared and a sample of the mixture (20 mg) was then suspended in a solvent system (50 vol, 1.0 mL) and shaken at different temperatures for 96 hr. The solids were filtered, air dried and analysed by XRPD. The results obtained (Table 8) reveal that, in all but one of the systems investigated (Entries 10-12), the mixture of polymorphic forms had turned over into Form 2 when maintained at both RT and 50° C. The transformation in propyl acetate was seen to be especially facile as Form 2 was also isolated from the suspension which had been maintained at 5° C. (Entry 1).

[2] = Equilibration of Forms 1 and 2, singularly and as mixtures, in MEK and THF alone and with 5% water; assay type: physicochemical; conditions: 5-10 °C, both equilibration temperatures
Source text: The influence of the initial polymorphic composition on the fate of samples was investigated by equilibration of the either the single polymorphs or an equal mixture of both in anhydrous MEK and THF as well as in the same solvents doped with 5% water.
The results obtained (Table 13) reveal that in anhydrous media the two polymorphs retain their structural integrity, if present singularly (Table 13, Entries 1, 2, 4 and 5). […] (Table 13, Entry 4) which may be attributable to the presence of traces of moisture in a highly hygroscopic solvent.
The results observed when 5% water was admixed to the two solvents indicate that the predominance of the two forms reversed under these conditions, taking kinetic factors into account. In aqueous MEK (5% water) the single polymorphs were again unchanged for the duration of the experiment (Table 13, Entries 7 and 8). In contrast, the binary polymorphic mixture converted into Form 1 in this medium (Table 13, Entry 9). In aqueous THF (5% water) the dominance of Form 1 as the most preferred polymorph was especially evident. In this environment the suspension of Form 1 remained unchanged (Table 13, Entry 10), consistent with the outcome observed for aq MEK under the same conditions.
However, in THF doped with 5% water, both the suspension comprising the binary mixture, as well as that composed of the Form 2 polymorph alone, were transformed into suspensions containing only Form 1 (Table 13, Entries 11 and 12).

[3] = Maturation of 1:1 suspensions of Forms 1 and 2 at varying temperatures, XRPD analysis; assay type: physicochemical
Source text: It has been determined that the crystalline states, referred to herein as Form 1 and Form 2, constitute an enantiotropic polymorphic pair. This property arises from a temperature dependency of their relative thermodynamic stabilities, whereby one of the polymorphs is the most thermodynamically stable manifestation of the material up to a characteristic (empirically determined) temperature; above which their order of stability is inverted. In the present instance suspensions comprising equal amounts of the two polymorphs were matured, in one of six different solvents, at 50° C., 70° C. and 135° C. (Table 6). In all experiments conducted at both 50° C. and 70° C. the 1:1 mixtures converted into suspensions containing only the Form 2 polymorph. In contrast, all of the mixtures maintained at a temperature of 135° C. were transformed into Form 1.
as §1
A mixture of equal amounts Forms 1 and 2 (100 mg) was charged to crystallisation tubes followed by the selected solvent. The suspensions were heated to the temperatures indicated (Table 6) for 72 hr, during which time samples were taken at 24 hr intervals Solids were isolated at the maturation temperature by filtration and then dried in vacuo at 45° C. for 20 hr. In two cases (Table 6, Entries 1 and 2) suspensions were retained at 135° C. which comprised Form I from the 24 hr time point to the conclusion of the experiment. In the remaining cases (Table 6, Entries 4-6) solutions had formed at 72 hr and solids were recovered by slight cooling, all of which were determined to be Form 1. Those maturated at lower temperatures all gave Form 2 within 24 hr.

[4] = Solubility of Compound I in MEK/water mixtures; assay type: physicochemical; conditions: 25 °C, organic solvent or mixture, thermodynamic from solid
Protocol: (Table 12). It was observed that Form 2 integrity was maintained for at least 24 hours at the lower temperature until the water content exceeded 6%, despite an increase in solubility of Compound I from 19 to 30 mg/ml (data not shown).

Candida auris isolates = conditions: isolates collected globally; cited from earlier work
Aspergillus fumigatus [5] = conditions: topical Compound I in combination with a known systemic triazole agent; in vitro human alveolus bilayer model; cited from earlier work
[6] = Solubility of Compound I in water; assay type: physicochemical
[7] = molecular target: T1, Aspergillus fumigatus sterol 14α-demethylase CYP51A (Aspergillus fumigatus, UniProt Q4WNT5); conditions: cited from earlier work
T1 sequence (Q4WNT5 1-515): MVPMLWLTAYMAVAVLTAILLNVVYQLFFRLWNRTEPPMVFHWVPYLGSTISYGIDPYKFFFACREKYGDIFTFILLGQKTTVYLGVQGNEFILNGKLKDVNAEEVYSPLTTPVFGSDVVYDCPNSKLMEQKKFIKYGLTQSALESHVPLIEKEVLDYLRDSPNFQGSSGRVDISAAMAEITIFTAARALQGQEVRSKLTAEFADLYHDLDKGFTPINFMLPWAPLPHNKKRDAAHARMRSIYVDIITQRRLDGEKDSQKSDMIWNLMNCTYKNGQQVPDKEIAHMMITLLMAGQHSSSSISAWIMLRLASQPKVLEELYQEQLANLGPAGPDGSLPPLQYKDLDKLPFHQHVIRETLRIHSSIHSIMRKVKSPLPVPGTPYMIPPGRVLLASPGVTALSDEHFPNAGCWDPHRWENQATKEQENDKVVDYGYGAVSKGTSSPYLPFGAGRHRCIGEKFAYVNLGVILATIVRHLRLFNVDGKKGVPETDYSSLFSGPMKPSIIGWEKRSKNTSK

Aspergillus fumigatus [8] = conditions: topical Compound I in combination with a known systemic triazole agent; lungs of neutropenic, immunocompromised mice; cited from earlier work
Aspergillus fumigatus [9] = conditions: intranasal dosing, immunocompromised mice, repeat dosing; cited from earlier work
[10] = molecular target: T2, Aspergillus fumigatus sterol 14α-demethylase CYP51B (Aspergillus fumigatus, UniProt E9QY26); conditions: cited from earlier work
T2 sequence (E9QY26 1-524): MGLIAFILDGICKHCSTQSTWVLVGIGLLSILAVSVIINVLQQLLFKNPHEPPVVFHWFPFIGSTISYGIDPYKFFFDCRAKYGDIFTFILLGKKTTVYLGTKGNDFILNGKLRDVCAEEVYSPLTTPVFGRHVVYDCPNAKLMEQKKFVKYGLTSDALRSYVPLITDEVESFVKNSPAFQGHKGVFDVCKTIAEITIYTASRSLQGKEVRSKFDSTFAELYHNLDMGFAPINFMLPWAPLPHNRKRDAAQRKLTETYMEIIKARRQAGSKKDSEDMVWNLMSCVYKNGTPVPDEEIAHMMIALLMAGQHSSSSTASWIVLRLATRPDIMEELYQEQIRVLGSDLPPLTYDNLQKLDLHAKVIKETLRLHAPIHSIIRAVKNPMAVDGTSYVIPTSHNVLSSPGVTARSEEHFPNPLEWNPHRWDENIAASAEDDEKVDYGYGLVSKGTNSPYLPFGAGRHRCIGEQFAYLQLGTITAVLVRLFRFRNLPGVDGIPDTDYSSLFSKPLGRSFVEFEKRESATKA

SMILES: Cc1cc(N2CCN(c3ccc(C(=O)Nc4ccc(F)cc4)cc3)CC2)ccc1OC[C@@H]1CO[C@@](Cn2cncn2)(c2ccc(F)cc2F)C1 [Forms 1 and 2]
- Polymorphic Form by XRPD ([1]; PrOAc, 5 °C): 2
- Polymorphic Form by XRPD ([1]; PrOAc, 25 °C): 2
- Polymorphic Form by XRPD ([1]; PrOAc, 50 °C): 2
- Polymorphic Form by XRPD ([1]; TBME, 25 °C): 2
- Polymorphic Form by XRPD ([1]; TBME, 50 °C): 2
- Polymorphic Form by XRPD ([1]; Toluene, 25 °C): 2
- Polymorphic Form by XRPD ([1]; Toluene, 50 °C): 2
- Form by XRPD Post Equilibration ([2]; MEK (anhydrous), listed as 1 + 2): 2
- Form by XRPD Post Equilibration ([2]; MEK/5% Water): 1
- Form by XRPD Post Equilibration ([2]; THF (anhydrous), Form 1 input: some evidence of Form 2 at 10 °C, listed as 1 + 2): 2
- Form by XRPD Post Equilibration ([2]; THF/5% Water): 1
- Polymorph obtained at temp indicated ([3]; decalin, 50 °C, XRPD after 72 hr): 2
- Polymorph obtained at temp indicated ([3]; decalin, 70 °C, XRPD after 72 hr): 2
- Polymorph obtained at temp indicated ([3]; decalin, 135 °C, 72 hr, dissolution occurred, solid obtained on slight cooling): 1^b
- Polymorph obtained at temp indicated ([3]; diphenyl ether, 50 °C, XRPD after 72 hr): 2
- Polymorph obtained at temp indicated ([3]; diphenyl ether, 70 °C, XRPD after 72 hr): 2
- Polymorph obtained at temp indicated ([3]; diphenyl ether, 135 °C, 72 hr, dissolution occurred, solid obtained on slight cooling): 1^b
- enantiotropic transition point (temperature at which stability inverts) ([3]; from maturation of 1:1 mixtures at 50, 70 and 135 °C): 70-135 °C
- Polymorph obtained at temp indicated ([3]; heptanol, 50 °C, XRPD after 72 hr): 2
- Polymorph obtained at temp indicated ([3]; heptanol, 70 °C, XRPD after 72 hr): 2
- Polymorph obtained at temp indicated ([3]; heptanol, 135 °C, 72 hr, dissolution occurred, solid obtained on slight cooling): 1^b
- Polymorph obtained at temp indicated ([3]; mesitylene, 50 °C, XRPD after 72 hr): 2
- Polymorph obtained at temp indicated ([3]; mesitylene, 70 °C, XRPD after 72 hr): 2
- Polymorph obtained at temp indicated ([3]; mesitylene, 135 °C, XRPD after 72 hr): 1
- Polymorph obtained at temp indicated ([3]; p-cymene, 50 °C, XRPD after 72 hr): 2
- Polymorph obtained at temp indicated ([3]; p-cymene, 70 °C, XRPD after 72 hr): 2
- Polymorph obtained at temp indicated ([3]; p-cymene, 135 °C, 72 hr, dissolution occurred, solid obtained on slight cooling): 1^b
- Polymorph obtained at temp indicated ([3]; xylenes, 50 °C, XRPD after 72 hr): 2
- Polymorph obtained at temp indicated ([3]; xylenes, 70 °C, XRPD after 72 hr): 2
- Polymorph obtained at temp indicated ([3]; xylenes, 135 °C, XRPD after 72 hr): 1

SMILES: Cc1cc(N2CCN(c3ccc(C(=O)Nc4ccc(F)cc4)cc3)CC2)ccc1OC[C@@H]1CO[C@@](Cn2cncn2)(c2ccc(F)cc2F)C1 [Compound I, 4-(4-(4-(((3R,5R)-5-((1H-1,2,4-triazol-1-yl)methyl)-5-(2,4-difluorophenyl)tetrahydrofuran-3-yl)methoxy)-3-methylphenyl)piperazin-1-yl)-N-(4-fluorophenyl)benzamide]
- solubility ([4]; MEK with 8% water by volume): 23 mg/mL (≈ 33.7 mM)
- solubility ([4]; MEK with water content rising up to 6% by volume, 25 °C (data not shown)): 19 to 30 mg/mL (≈ 27.8 to 43.9 mM)
- inhibition of Candida auris isolates, potency compared with azoles (Candida auris isolates): more potent inhibitor than posaconazole, voriconazole and fluconazole
- anti-fungal effect of combination (Aspergillus fumigatus [5]): synergistic anti-fungal effects
- solubility in water [6]: extremely low solubility
- inhibition of sterol 14α-demethylase CYP51A [7]: potent inhibitor
- anti-fungal effect of combination (Aspergillus fumigatus [8]): synergistic anti-fungal effects
- anti-fungal effects by biomarker analysis (Aspergillus fumigatus [9]): accumulated upon repeat dosing and were persistent
- inhibition of sterol 14α-demethylase CYP51B [10]: potent inhibitor

SMILES: [2H]c1c([2H])c(NC(=O)c2ccc(N3CCN(c4ccc(OC[C@@H]5CO[C@@](Cn6cncn6)(c6ccc(F)cc6F)C5)c(C)c4)CC3)cc2)c([2H])c([2H])c1F [Compound 2, 4-(4-(4-(((3R,5R)-5-((1H-1,2,4-triazol-1-yl)methyl)-5-(2,4-difluorophenyl)tetrahydrofuran-3-yl)methoxy)-3-methylphenyl)piperazin-1-yl)-N-(4-fluorophenyl-2,3,5,6-d4)benzamide, reference compound]
- Form by XRPD Post Equilibration ([2]; MEK (anhydrous)): 2
- Form by XRPD Post Equilibration ([2]; MEK/5% Water): 2
- Form by XRPD Post Equilibration ([2]; THF (anhydrous), Form 1 input: some evidence of Form 2 at 10 °C): 2
- Form by XRPD Post Equilibration ([2]; THF/5% Water): 1
